According to publication PMC8767159, “Multiparameter Optimization of Trypanocidal Cruzain Inhibitors With In Vivo Activity and Favorable Pharmacokinetics” (Frontiers in Pharmacology, 2022):

Experiments:
[1] = Parallel artificial membrane permeability assay (PAMPA); format: in vitro ADME; set-up: PAMPA: unit: 1e-6 cm/s; conditions: for PAMPA: unit not given
Description: The permeability of the compounds was assessed using the PAMPA method ([Yu et al., 2015]). The test compounds were dissolved in DMSO to a concentration of 5 mM. Next, the compounds were diluted in a stock plate in saline phosphate buffer (PBS), pH 6.5, containing 1% DMSO to a concentration of 1 µM. Then, 300 µl of each test compound was added to the donor plate. Afterward, 200 µl of PBS buffer, pH 7.4, was added to the acceptor plate. The donor plate was attached to the acceptor plate. The assembled acceptor-donor plate was then incubated at 37°C for 5 h under gentle agitation. To analyze the concentration of the compounds by mass spectrometry, two analysis plates (one for the donor and another for the acceptor plate) containing 300 μl of MEOH:ACN 50:50 were prepared. To the donor analysis plate, 90 µl of PBS, pH 6.5, and 10 µl of the content of the donor plate were added. For the acceptor analysis plate, 100 µl of the content of the acceptor plate was added. To monitor any potential decomposition/intrinsic instability of the test compounds in solution, samples from the stock plate were subjected to LC-MS/MS. The compounds that presented Pe ≥ 1.5 × 10^−6 cm/s were classified as permeable, while compounds that presented Pe < 1.5 × 10^−6 cm/s were considered poorly permeable or nonpermeable.

[2] = test system: T. cruzi intracellular amastigotes; experiment: Assay against T. cruzi intracellular amastigotes (Tulahuen lacZ strain in HFF-1 fibroblasts); format: cell-based, Trypanosoma cruzi
Description: Biological assays against T. cruzi intracellular amastigotes were performed as reported previously using the T. cruzi Tulahuen strain, which is genetically engineered to express the E. coli β-galactosidase gene lacZ ([Buckner et al., 1996]). β-Galactosidase catalyzes a colorimetric reaction with chlorophenol red β-D-galactopyranoside (CPRG, Sigma Chemical Co., St. Louis, MO) as the substrate. The assays were conducted in 96-well tissue culture plates, and the compounds to be tested were prepared in 100% DMSO. Epimastigotes were maintained in liver infusion tryptone (LIT) enriched with 10% fetal calf serum (FCS), streptomycin, and penicillin at 28°C. Epimastigotes were converted to trypomastigotes by incubation in Grace’s insect medium (Sigma–Aldrich, St. Louis, MO) enriched with 10% FCS at 28°C. Human HFF-1 fibroblasts were seeded at 2 × 10^3/well in 80 μl of RPMI 1640 without phenol red and incubated overnight at 37°C and 5% CO2. Trypomastigotes were seeded at 1.0 × 10^4/well in 20 μl of RPMI 1640, and the plates were incubated at 37°C and 5% CO2. The next day, the synthesized compounds were added (50 μl) in 3-fold serial dilutions at concentrations ranging from 0.4 to 300 μM, and the plates were incubated at 37°C and 5% CO2. Each compound concentration was assayed in triplicate. After 120 h, 50 μl of chlorophenol red β-D-galactopyranoside (CPRG, Sigma–Aldrich) and IGEPAL CA-630 (Sigma–Aldrich) at a final concentration of 0.1% were added. The absorbance was measured at a wavelength of 570 nm in an automated microplate reader. The data were transferred to SigmaPlot 10.0 (Systat Software Inc., Erkrath, Germany) to determine the IC50 values. Benznidazole (BZ, Sigma–Aldrich) was used as a positive control, and untreated wells (100% parasite growth) were used as negative controls in all plates. All compounds were tested in three independent assays.

[3] = PAMPA, Table 3, donor pH 6.5, acceptor pH 7.4, 5 h
[4] = Trypanosoma cruzi, HFF-1, 120 h, Table 3, 120 h, mean ± SD of three assays
[5] = Trypanosoma cruzi, HFF-1, Table 4, mean ± SD of three assays

SMILES	Papp at 5 h, 1 µM [1, 3] [×10⁻⁶ cm/s]	PAMPA ([1]; Table S5)	IC50 [2, 4] [µM]	IC50 [2, 5] [µM]	Papp at 5 h, 1 µM ([1]; PAMPA, Table 5) [×10⁻⁶ cm/s]	Papp at 5 h, 1 µM ([1]; Table S5, unit inferred) [×10⁻⁶ cm/s]	other results
O=C(COc1ccccc1)NCCc1nc2ccccc2n1Cc1ccccc1 [Compound 26]	8.72	8.72	7.4 ± 2	7.4 ± 2	–	–	–
O=C(COc1ccc(Br)cc1)NCCc1nc2ccccc2[nH]1 [Compound 33]	–	–	–	6.68 ± 2.35	0.7	–	–
C=CCCn1c(CCNC(=O)COc2ccccc2)nc2ccccc21 [Compound 27]	9.06	9.06	6.9 ± 2.2	6.9 ± 2.2	–	–	–
COCCn1c(CCNC(=O)COc2ccccc2)nc2ccccc21 [Compound 29]	–	–	–	–	–	9.35	–
O=C(COc1ccccc1Br)NCCc1nc2ccccc2n1CCOc1ccccc1Br [Compound 23]	–	–	–	–	–	0.08	–
O=C(COc1cccc(N2C(=O)CCC2=O)c1)NCCc1nc2ccccc2[nH]1 [Compound 6]	–	–	–	–	–	0.2	–
N#Cc1ccccc1OCC(=O)NCCc1nc2ccccc2[nH]1 [Compound 31]	–	–	–	–	2.2	–	–
O=C(COc1ccc(NC(=O)CCCO)cc1)NCCc1nc2ccccc2[nH]1 [Compound 5]	–	–	–	~50	–	0.02	–
CC(=O)Nc1cccc(OCC(=O)NCCc2nc3ccccc3[nH]2)c1 [Compound 3]	0.17	0.17	5 ± 1	5 ± 1	–	–	–
COc1ccc2cc(OCC(=O)NCCc3nc4ccccc4[nH]3)ccc2c1 [Compound 12]	0.34	0.34	16.6 ± 2.4	–	–	–	–
C=CCCn1c(CCNC(=O)COc2ccccc2Cl)nc2ccccc21 [Compound 38]	–	–	–	11.1 ± 3.19	7.7	–	–
O=C(COc1cccc([N+](=O)[O-])c1)NCCc1nc2ccccc2[nH]1 [Compound 8]	2.17	2.17	3.5 ± 0.7	3.5 ± 0.7	–	–	–
O=C(COc1ccc2ccc(O)cc2c1)NCCc1nc2ccccc2[nH]1 [Compound 11]	0.17	–	2.8 ± 0.6	–	–	0.13	–
O=C(COc1ccccc1)NCCc1nc2ccccc2n1-c1ccccc1 [Compound 30]	–	–	–	–	–	17.8	–
O=C(COc1ccccc1)NCCc1nc2ccccc2n1CCOc1ccccc1 [Compound 20]	4.3	4.30	2.04 ± 0.6	2.04 ± 0.6	–	–	–
Nc1cccc(OCC(=O)NCCc2nc3ccccc3[nH]2)c1 [Compound 9]	0.38	0.38	5.4 ± 0.9	–	–	–	–
Cc1ccccc1OCC(=O)NCCc1nc2ccccc2n1CCOc1ccccc1Br [Compound 22]	–	–	–	–	–	0.04	–
O=C(COc1cccc(NC(=O)CCCO)c1)NCCc1nc2ccccc2[nH]1 [Compound 7]	–	–	–	–	–	0.03	–

SMILES	Papp at 5 h, 1 µM [1, 3] [×10⁻⁶ cm/s]	PAMPA ([1]; Table S5)	IC50 [2, 4] [µM]	IC50 [2, 5] [µM]	Papp at 5 h, 1 µM ([1]; PAMPA, Table 5) [×10⁻⁶ cm/s]	Papp at 5 h, 1 µM ([1]; Table S5, unit inferred) [×10⁻⁶ cm/s]	other results
O=C(CCc1ccccc1Br)NCCc1nc2ccccc2[nH]1 [Compound 36]	–	–	–	–	4.7	–	–
O=C(COc1ccccc1)NCCc1nc2ccccc2[nH]1 [Compound 1]	4.21	4.21	3.9 ± 0.3	3.9 ± 0.3	–	–	–
O=C(COc1ccccc1)NCCc1nc2ccccc2n1CCCOc1ccccc1 [Compound 24]	2.29	2.29	1.43 ± 0.4	1.43 ± 0.4	–	–	–
O=C(COc1ccccc1)NCCc1nc2ccccc2n1CCOc1ccccc1Br [Compound 19]	–	–	–	–	–	0.08	–
Cc1ccccc1OCC(=O)NCCc1nc2ccccc2[nH]1 [Compound 17]	–	–	–	2.81 ± 0.75	5.9	–	–
O=C(Cn1ccnc1[N+](=O)[O-])NCc1ccccc1 [BZ, benznidazole, reference compound]	3.17	3.17	–	3 ± 0.6	3.2	–	IC50 ([2]; Trypanosoma cruzi, HFF-1, Table 3, 120 h, mean ± SD of three assays): 1.45 ± 0.4 µM
O=C(COc1ccc2cc(O)ccc2c1)NCCc1nc2ccccc2[nH]1 [Compound 10]	0.21	0.21	14.6 ± 0.7	14.6 ± 0.7	–	–	–
O=C(COc1ccccc1[N+](=O)[O-])NCCc1nc2ccccc2[nH]1 [Compound 32]	–	–	–	7.9 ± 2.13	4.9	–	–
O=C(COc1ccccc1Br)NCCc1nc2ccccc2[nH]1 [Compound 18]	–	–	–	1.6	5.6	–	IC50 ([2]; Table 4, mean ± SD of three assays): 1.63 ± 0.57 µM
O=C(COc1ccc2ccccc2c1)NCCc1nc2ccccc2[nH]1 [Compound 35]	–	–	–	46.1 ± 6.21	0.7	–	–
CC(=O)Nc1ccc(OCC(=O)NCCc2nc3ccccc3[nH]2)cc1 [Compound 2]	0.21	0.21	4.5 ± 0.6	12.1 ± 1.3	–	–	–
O=C(COc1ccc2ccccc2c1Br)NCCc1nc2ccccc2[nH]1 [Compound 34]	–	–	–	16.2 ± 3.51	0.3	–	–
Cn1c(CCNC(=O)COc2ccccc2)nc2ccccc21 [Compound 25]	1.46	–	~100	–	–	6.55	IC50 T. cruzi (μM) ([2]; Table 3, 120 h, mean ± SD of three assays): inactive
O=C(COc1ccccc1)NCCc1nc2ccccc2n1CCOCc1ccccc1 [Compound 21]	–	–	–	–	–	3.98	–
Cc1ccccc1OCC(=O)NCCc1nc2ccccc2o1 [Compound 37]	–	–	–	2.9 ± 0.66	19.7	–	–
NC(=O)Cn1c(CCNC(=O)COc2ccccc2)nc2ccccc21 [Compound 28]	0.71	0.71	6.8 ± 0.9	6.8 ± 0.9	–	–	–
O=C(COc1ccc(N2C(=O)CCC2=O)cc1)NCCc1nc2ccccc2[nH]1 [Compound 4]	–	–	–	–	–	0.17	–
